US20250235499A1, “ANTI-OVARIAN CANCER PHARMACEUTICAL COMPOSITION AND ACTION TARGET THEREOF” (Zhejiang Chinese Medical University, priority 2024, published 2025)

Key:
Format in all cases: cell-based, human
Hey ovarian cancer cells [1] = assay: CCK-8 detection of proliferation of an ovarian cancer cell; settings: CA 50-800 μmol/L, BDMC 3.125-50 μmol/L, 24 and 48 hours, concentration- and time-dependent
Procedure: (§1) SKOV3 and Hey ovarian cancer cells in logarithmic growth phase were digested with 0.1% trypsin to prepare a cell suspension, and the cell concentration was quantified at 10^4 cells/mL. 200 μL of the cell suspension each well was inoculated into a 96 well plate, and 200 μL of PBS was added to each well of the outer circle to eliminate edge effects. The 96 well plate was placed in a 37° C. incubator containing 5% CO2 for 24 hours each. After the cells adhered to the wall, the culture medium was discarded, and the cells were washed three times with PBS buffer. New culture medium containing different concentrations of CA (0, 50, 100, 200, 400, and 800 μmol/L) and BDMC ([…]) were added, with 6 parallel wells in each group. After adding a pharmaceutical, cultivation was further conducted, the 96 well plate was taken out at 24 hours and 48 hours, the original culture medium was discarded, the cells were washed three times with PBS, 200 μL of prepared serum-free culture medium containing 10% CCK-8 was added, and incubated at 37° C. for 1 hour. A well with drug concentration of 0 μmol/L was used as a control well and a well without cells and only added with a CCK-8 solution as a blank well. An absorbance at a wavelength of 450 nm was measured using a microplate reader, and an IC50 value was calculated using GraphPad Prism 8 software. […]

[2] = tested on: SKOV3 ovarian cancer cells; assay: as above; settings: CA 50-800 μmol/L, BDMC 3.125-50 μmol/L, 24 and 48 hours, concentration- and time-dependent
Procedure: as §1

Hey ovarian cancer cells [3] = assay: Cell migration and invasion (small chamber) with MCM2 knockdown or overexpression
Procedure: (§2) The night before collecting cells, small chambers were placed in a 24 well plate. A matrix gel was taken out from the −20° C. refrigerator and placed to melt naturally on ice. The thawed matrix gel was mixed with serum-free medium in a ratio of 1:5, and 100 μL of the mixture was added to each chamber. After preparation, the 24 well plate was placed in the incubator overnight. The next day, SKOV3 and Hey ovarian cancer cells in logarithmic growth phase were knocked down with MCM2 (Control group, sh-NC group, sh-MCM2 group) and overexpressed with MCM2 (Control group, OE-NC group, OE-MCM2 group). The original culture medium was discarded, washed with PBS buffer, and digested with 0.1% trypsin. A corresponding serum-free culture medium was added to prepare a cell suspension. Cells were counted using a hemocytometer and the cell concentration was quantified at 5×10^4 cells/mL. The 24 well plate was taken out and placed in a small chamber for a migration experiment and the 24 well plate with the matrix gel for an invasion experiment. 200 μL of a corresponding cell suspension was added to an upper chamber, and 700 μL of a corresponding culture medium containing 10% FBS was added to a lower chamber. The 24 well plate was further placed in an incubator for cultivation. The 24 well plate for the migration experiment was cultured for 24 hours before being taken out, while the 24 well plate for the invasion experiment was cultured for 48 hours before being taken out. The culture medium in the small chamber was poured out. The inside of the small chamber was cleaned with a cotton swab, and washed twice with the PBS buffer. The small chamber was fixed in 4% paraformaldehyde for 30 minutes, and stained in 1% crystal violet solution for 10 minutes after fixation. The small chamber was taken out, washed twice with the PBS buffer, dried with an absorbent paper, observed and counted under a microscope. The impact of CA, BDMC, and combined administration intervention on cell migration after knocking down MCM2 in SKOV3 and Hey ovarian cancer cells was shown in FIGS. 19A-19D. The scale in FIGS. 19A-19D was 10 μM; A represented the migration of SKOV3 cells; B represented the migration of Hey cells; C represented the invasion of SKOV3 cells; and D represented the invasion of Hey cells. Compared with the sh-NC group, ##P<0.01; compared with the sh-NC+CA+BDMC group, &&P<0.01; and ** P<0.01. The impact of CA, BDMC, and combined administration intervention on cell migration after overexpression of MCM2 on the SKOV3 and Hey ovarian cancer cells was shown in FIGS. 20A-20D. The scale in FIGS. 20A-20D was 10 μM, A represented the migration of SKOV3 cells; B represented the migration of Hey cells; C represented the invasion of SKOV3 cells; and D represented the invasion of Hey cells. Compared with the OE-NC group, ##P<0.01; compared with the OE-NC+CA+BDMC group, &&P<0.01; and compared with the OE-MCM2+CA+BDMC group, ΔP<0.05, ΔΔP<0.01; and ** P<0.01.

[4] = tested on: SKOV3 ovarian cancer cells; assay: as above
Procedure: as §2

[5] = tested on: CDK4, Cyclin D1, P21 in Hey cells; assay: Expression of cell cycle related proteins in cells
[6] = Hey OE-MCM2 cells (MCM2 overexpression), vs OE-MCM2 group
[7] = Hey OE-NC cells (empty vector), vs OE-NC group
[8] = Hey sh-MCM2 cells (MCM2 knockdown), vs sh-MCM2 group
[9] = Hey sh-NC cells (empty vector), vs sh-NC group
[10] = SKOV3 OE-MCM2 cells (MCM2 overexpression), vs OE-MCM2 group
[11] = SKOV3 OE-NC cells (empty vector), vs OE-NC group
[12] = SKOV3 sh-MCM2 cells (MCM2 knockdown), vs sh-MCM2 group
[13] = SKOV3 sh-NC cells (empty vector), vs sh-NC group

With `COc1ccc(-c2coc3cc(O)ccc3c2=O)cc1O` [CA, calycosin] the effect on proliferation (Hey ovarian cancer cells [1]) was “proliferative inhibitory effects”, the effect on proliferation [2] was “proliferative inhibitory effects” and the “number of the invading cells” value (Hey ovarian cancer cells [3]; [6]) was “no significant change”. The “number of the migrating cells” value (Hey ovarian cancer cells [3]; [6]) was “no significant change”, the “number of the invading cells” value (Hey ovarian cancer cells [3]; [7]) was “significantly reduced” and the “number of the migrating cells” value (Hey ovarian cancer cells [3]; [7]) was “significantly reduced”. For the same compound, the “number of the invading cells” value (Hey ovarian cancer cells [3]; [8]) was “no significant change”, the “number of the migrating cells” value (Hey ovarian cancer cells [3]; [8]) was “no significant change” and the “number of the invading cells” value (Hey ovarian cancer cells [3]; [9]) was “significantly reduced”. For the same compound, the “number of the migrating cells” value (Hey ovarian cancer cells [3]; [9]) was “significantly reduced”, the “number of the invading cells” value [4, 10] was “no significant change” and the “number of the migrating cells” value [4, 10] was “no significant change”. For the same compound, the “number of the invading cells” value [4, 11] was “significantly reduced”, the “number of the migrating cells” value [4, 11] was “significantly reduced” and the “number of the invading cells” value [4, 12] was “no significant change”. For the same compound, the “number of the migrating cells” value [4, 12] was “no significant change”, the “number of the invading cells” value [4, 13] was “significantly reduced” and the “number of the migrating cells” value [4, 13] was “significantly reduced”. The “expression of CDK4” value [5, 6] was “no significant change”, the “expression of Cyclin D1” value [5, 6] was “no significant change” and the “expression of P21” value [5, 6] was “no significant change”. For the same compound, the “expression of CDK4” value [5, 7] was “significantly decreased”, the “expression of Cyclin D1” value [5, 7] was “significantly decreased” and the “expression of P21” value [5, 7] was “significantly increased”. The “expression of CDK4” value [5, 8] was “no significant change”, the “expression of Cyclin D1” value [5, 8] was “no significant change” and the “expression of P21” value [5, 8] was “no significant change”. For the same compound, the “expression of CDK4” value [5, 9] was “significantly decreased”, the “expression of Cyclin D1” value [5, 9] was “significantly decreased” and the “expression of P21” value [5, 9] was “significantly increased”.
